Experiments:
Assay type in all cases: in vivo
[1] = test system: Alopecurus myosuroides (ALOMY); test: Test 1 glasshouse assay, pre-emergence herbicidal activity; conditions: 312 h, visual evaluation after 13 days, read-out: Percentage phytotoxicity ALOMY
Description: (§1) Seeds of a variety of test species are sown in standard soil in pots. After cultivation for one day (pre-emergence) or after 8 days cultivation (post-emergence) under controlled conditions in a glasshouse (at 24/16° C., day/night; 14 hours light; 65% humidity), the plants are sprayed with an aqueous spray solution derived from the formulation of the “technical” (i.e. unformulated) active ingredient in acetone/water (50:50) solution containing 0.5% Tween 20 (polyoxyethylene sorbitan monolaurate, CAS Registry Number 9005-64-5). The test plants are then grown on under controlled conditions in a glasshouse (at 24/16° C., day/night; 14 hours light; 65% humidity) and watered twice daily. After 13 days for pre- or post-emergence, the test is evaluated visually, and an assessed percentage phytotoxicity score is given for each herbicidal application on each plant species (where 100%=total damage to plant; 0%=no damage to plant).
(§2) Test plants include the following: Abutilon theophrasti (ABUTH), Amaranthus retroflexus (AMARE): these are dicotyledonous (broadleaved) weeds. Setaria faberi (SETFA), Alopecurus myosuroides (ALOMY), Echinochloa crus-galli (ECHCG): these are grassy monocotyledonous weeds. Also: Zea mays (ZEAMX, corn/maize), which can be a grassy weed (“volunteer” corn) in some circumstances.

[2] = test system: Echinochloa crus-galli (ECHCG); test: as above; conditions: 312 h, visual evaluation after 13 days, read-out: Percentage phytotoxicity ECHCG
Description: as §1, §2

[3] = test system: Alopecurus myosuroides (ALOMY); test: Test 1 glasshouse assay, post-emergence herbicidal activity; conditions: 312 h, after 13 days, read-out: Percentage phytotoxicity ALOMY
Description: as §1
(§3) Test plants include the following: Abutilon theophrasti (ABUTH) and Amaranthus retroflexus (AMARE); these are all dicotyledonous (broadleaved) weeds. Setaria faberi (SETFA), Alopecurus myosuroides (ALOMY), and Echinochloa crus-galli (ECHCG); these are all grassy monocotyledonous weeds. Also: Zea mays (ZEAMX, corn/maize), which can be a grassy weed (“volunteer” corn) in some circumstances.
(§4) Lolium perenne (LOLPE), Alopecurus myosuroides (ALOMY), Echinochloa crus-galli (ECHCG), and Avena fatua (AVEFA); these are all grassy monocotyledonous weeds. Cool climate crop plant: Triticum aestivum (TRZAW, winter wheat).

[4] = test system: Echinochloa crus-galli (ECHCG); test: as above; conditions: 312 h, after 13 days, read-out: Percentage phytotoxicity ECHCG
Description: as §1, §3, §4

Avena fatua (AVEFA) = test: as above; conditions: 312 h, post-emergence (Example 1B Table 2), after 13 days, read-out: Percentage phytotoxicity AVEFA
Description: as §1, §4

Lolium perenne (LOLPE) = test: as above; conditions: 312 h, post-emergence (Example 1B Table 2), after 13 days, read-out: Percentage phytotoxicity LOLPE
Description: as §1, §4

[5] = test system: Triticum aestivum (TRZAW, winter wheat); test: as above; conditions: 312 h, post-emergence (Example 1B Table 2), after 13 days, crop plant, read-out: Percentage phytotoxicity TRZAW
Description: as §1, §4

[6] = test system: Abutilon theophrasti (ABUTH); test: Test 1 glasshouse assay, pre-emergence herbicidal activity; conditions: 312 h, visual evaluation after 13 days, read-out: Percentage phytotoxicity ABUTH
Description: as §1, §2

[7] = test system: Amaranthus retroflexus (AMARE); test: as above; conditions: 312 h, visual evaluation after 13 days, read-out: Percentage phytotoxicity AMARE
Description: as §1, §2

Setaria faberi (SETFA) [8] = test: as above; conditions: 312 h, visual evaluation after 13 days, read-out: Percentage phytotoxicity SETFA
Description: as §1, §2

[9] = test system: Zea mays (ZEAMX, corn/maize); test: as above; conditions: 312 h, visual evaluation after 13 days, read-out: Percentage phytotoxicity ZEAMX
Description: as §1, §2

[10] = test system: Abutilon theophrasti (ABUTH); test: Test 1 glasshouse assay, post-emergence herbicidal activity; conditions: 312 h, post-emergence (Example 1B Table 1), after 13 days, read-out: Percentage phytotoxicity ABUTH
Description: as §1, §3

[11] = test system: Amaranthus retroflexus (AMARE); test: as above; conditions: 312 h, post-emergence (Example 1B Table 1), after 13 days, read-out: Percentage phytotoxicity AMARE
Description: as §1, §3

Setaria faberi (SETFA) [12] = test: as above; conditions: 312 h, post-emergence (Example 1B Table 1), after 13 days, read-out: Percentage phytotoxicity SETFA
Description: as §1, §3

[13] = test system: Zea mays (ZEAMX, corn/maize); test: as above; conditions: 312 h, post-emergence (Example 1B Table 1), after 13 days, read-out: Percentage phytotoxicity ZEAMX
Description: as §1, §3

[14] = post-emergence (Example 1B Table 2)
[15] = post-emergence (Example 1B Table 1)
[16] = post-emergence (Example 1B Table 1), 8 g/ha

| SMILES | pest or weed control at 250 g/ha [1] | pest or weed control at 250 g/ha [2] | pest or weed control at 62.5 g/ha [3, 14] | pest or weed control at 250 g/ha [3, 14] | pest or weed control at 62.5 g/ha [4, 14] | pest or weed control at 250 g/ha [4, 14] | pest or weed control at 62.5 g/ha (Avena fatua (AVEFA)) | pest or weed control at 250 g/ha (Avena fatua (AVEFA)) | pest or weed control at 62.5 g/ha (Lolium perenne (LOLPE)) | pest or weed control at 250 g/ha (Lolium perenne (LOLPE)) | plant injury at 62.5 g/ha [5] | plant injury at 250 g/ha [5] | pest or weed control at 250 g/ha [6] | pest or weed control at 250 g/ha [7] | pest or weed control at 250 g/ha [10] | pest or weed control at 250 g/ha [11] | pest or weed control at 250 g/ha (Setaria faberi (SETFA) [12]) | pest or weed control at 250 g/ha [13] | pest or weed control at 250 g/ha [3, 15] | pest or weed control at 250 g/ha [4, 15] | other results |
| --- | --- | --- | --- | --- | --- | --- | --- | --- | --- | --- | --- | --- | --- | --- | --- | --- | --- | --- | --- | --- | --- |
| CC#CCC1CC(=O)C(c2c(C)cc(C)cc2C)C1=O (centres unmarked) [Compound A24] | 100% | 100% | 60% | 80% | 70% | 80% | 60% | 50% | 70% | 80% | 0% | 0% |  |  |  |  |  |  |  |  |  |
| C#CCC1CC(=O)C(c2c(F)cc(-c3ccc(F)cc3)cc2Cl)C1=O (centres unmarked) [Compound A4] | 90% | 100% |  |  |  |  |  |  |  |  |  |  | 0% | 80% | 80% | 80% | 100% | 100% | 100% | 100% | pest or weed control at 250 g/ha (Setaria faberi (SETFA) [8]): 100%; pest or weed control at 250 g/ha [9]: 100%; pest or weed control at 30 g/ha [10]: 40%; pest or weed control at 30 g/ha [11]: 60%; pest or weed control at 30 g/ha (Setaria faberi (SETFA) [12]): 100%; pest or weed control at 30 g/ha [13]: 100%; pest or weed control at 30 g/ha [3, 15]: 70%; pest or weed control at 30 g/ha [4, 15]: 90% |
| C#CCC1CC(=O)C(c2cc(-c3ccc(Cl)cn3)ccc2C)C1=O (centres unmarked) [Compound A17] | 70% | 70% |  |  |  |  |  |  |  |  |  |  | 10% | 10% | 10% | 50% | 80% | 60% | 70% | 80% | pest or weed control at 250 g/ha (Setaria faberi (SETFA) [8]): 70%; pest or weed control at 250 g/ha [9]: 60% |
| C#CCC1CC(=O)C(c2ccc(-c3ccc(Cl)cc3)cc2C)C1=O (centres unmarked) [Compound A43] |  |  |  |  |  |  |  |  |  |  |  |  |  |  |  | 0% | 70% |  | 20% | 20% |  |
| C#CCC1CC(=O)C(c2cc(-c3ccc(Cl)cc3)ccc2C)C1=O (centres unmarked) [Compound A16] | 90% | 90% |  |  |  |  |  |  |  |  |  |  | 40% | 40% | 40% | 60% | 90% | 60% | 90% | 100% | pest or weed control at 250 g/ha (Setaria faberi (SETFA) [8]): 90%; pest or weed control at 250 g/ha [9]: 80%; pest or weed control at 30 g/ha [10]: 40%; pest or weed control at 30 g/ha [11]: 0%; pest or weed control at 30 g/ha (Setaria faberi (SETFA) [12]): 80%; pest or weed control at 30 g/ha [13]: 80%; pest or weed control at 30 g/ha [3, 15]: 70%; pest or weed control at 30 g/ha [4, 15]: 40% |
| C#CCC1CC(=O)C(c2c(C)cc(C#C)cc2C)C1=O (centres unmarked) [Compound A27] | 100% | 100% | 90% | 100% | 90% | 100% | 90% | 100% | 80% | 100% | 80% | 90% |  |  |  |  |  |  |  |  |  |
| C#CCC1CC(=O)C(c2c(Cl)cccc2Cl)C1=O (centres unmarked) [Compound A29] | 70% | 90% | 60% | 80% | 90% | 100% | 0% | 60% | 60% | 80% | 60% | 80% |  |  |  |  |  |  |  |  |  |
| C#CCC1C(=O)C(c2cc(-c3ccc(Cl)cc3)ccc2C)C(=O)C1CC#C (centres unmarked) [Compound A44] |  |  |  |  |  |  |  |  |  |  |  |  |  |  | 10% | 0% | 0% | 20% | 0% | 0% | pest or weed control at 8 g/ha ([10]; 8 g/ha): 0%; pest or weed control at 8 g/ha ([11]; 8 g/ha): 0%; pest or weed control at 8 g/ha (Setaria faberi (SETFA) [12]; 8 g/ha): 0%; pest or weed control at 8 g/ha ([13]; 8 g/ha): 30%; pest or weed control at 8 g/ha [3, 16]: 0%; pest or weed control at 8 g/ha [4, 16]: 0% |
| C#Cc1cc(C)c(C2C(=O)CC(CC#CC)C2=O)c(C)c1 (centres unmarked) [Compound A28] | 90% | 100% | 70% | 100% | 90% | 100% | 80% | 90% | 80% | 90% | 30% | 80% |  |  |  |  |  |  |  |  |  |
| C#CCC1CC(=O)C(c2c(Br)cc(C)cc2Br)C1=O (centres unmarked) [Compound A26] | 30% | 80% |  | 60% |  | 100% |  | 70% |  | 100% |  | 10% |  |  |  |  |  |  |  |  |  |
